One experiment addresses T1, human MR (Homo sapiens, UniProt P08235).
T1 construct: The full length human MR gene is cloned from a human kidney or human brain cDNA library; His tag from the pAcHLT vector (own knowledge); made in house; host or cells: Sf9 insect cells (baculovirus, pAcHLT transfer vector)
T1 sequence (P08235 1-984): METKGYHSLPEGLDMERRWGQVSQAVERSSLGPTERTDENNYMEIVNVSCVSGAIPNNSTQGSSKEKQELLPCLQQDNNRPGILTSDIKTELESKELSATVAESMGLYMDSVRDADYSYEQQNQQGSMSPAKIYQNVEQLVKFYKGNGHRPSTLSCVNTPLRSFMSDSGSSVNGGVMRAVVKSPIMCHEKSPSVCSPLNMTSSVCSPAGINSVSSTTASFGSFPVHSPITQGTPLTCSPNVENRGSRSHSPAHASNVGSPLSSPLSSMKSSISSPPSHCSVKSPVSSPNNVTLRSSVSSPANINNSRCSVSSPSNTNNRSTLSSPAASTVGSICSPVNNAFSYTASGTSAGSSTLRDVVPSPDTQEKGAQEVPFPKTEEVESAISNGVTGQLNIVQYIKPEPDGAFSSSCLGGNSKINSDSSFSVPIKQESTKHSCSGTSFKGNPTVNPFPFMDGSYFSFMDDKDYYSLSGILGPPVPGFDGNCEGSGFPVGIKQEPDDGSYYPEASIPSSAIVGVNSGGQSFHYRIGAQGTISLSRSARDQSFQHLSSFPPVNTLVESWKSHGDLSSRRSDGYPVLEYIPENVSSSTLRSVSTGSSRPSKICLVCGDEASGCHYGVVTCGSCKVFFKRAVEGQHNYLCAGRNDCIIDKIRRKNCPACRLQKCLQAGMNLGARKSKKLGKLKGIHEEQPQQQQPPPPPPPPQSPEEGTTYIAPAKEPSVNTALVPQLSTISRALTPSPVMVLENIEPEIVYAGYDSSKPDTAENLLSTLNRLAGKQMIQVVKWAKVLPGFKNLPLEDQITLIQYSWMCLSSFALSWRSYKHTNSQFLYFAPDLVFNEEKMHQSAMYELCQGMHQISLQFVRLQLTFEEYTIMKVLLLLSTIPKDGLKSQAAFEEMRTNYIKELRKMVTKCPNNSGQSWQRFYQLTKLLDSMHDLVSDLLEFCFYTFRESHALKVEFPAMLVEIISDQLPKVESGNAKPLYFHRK
The experiment can be described thus: Mineralocorticoid Receptor Binding Assay ([3H]-aldosterone). The following applies: [3H]-aldosterone binding, human MR expressed in Sf9 cells; read-out: MR Ki. In a few lines: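 Receptor source: freeze-thaw lysate of baculovirus-infected Sf9 cells carrying full-length human MR, 20-25 μg protein. Incubation ~16 h at 4 °C with shaking, pH 7.5 buffer containing 30 mM sodium molybdate and 10% glycerol.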

For a further experiment, the target named is T2, glucocorticoid receptor (Homo sapiens, UniProt P04150).
T2 construct: containing 50-200 ug of A549 cell extract and 1.86 nM [^3H]-dexamethasone; host or cells: A549 human lung epithelial cells (sonicated cell extract)
T2 sequence (P04150 1-777): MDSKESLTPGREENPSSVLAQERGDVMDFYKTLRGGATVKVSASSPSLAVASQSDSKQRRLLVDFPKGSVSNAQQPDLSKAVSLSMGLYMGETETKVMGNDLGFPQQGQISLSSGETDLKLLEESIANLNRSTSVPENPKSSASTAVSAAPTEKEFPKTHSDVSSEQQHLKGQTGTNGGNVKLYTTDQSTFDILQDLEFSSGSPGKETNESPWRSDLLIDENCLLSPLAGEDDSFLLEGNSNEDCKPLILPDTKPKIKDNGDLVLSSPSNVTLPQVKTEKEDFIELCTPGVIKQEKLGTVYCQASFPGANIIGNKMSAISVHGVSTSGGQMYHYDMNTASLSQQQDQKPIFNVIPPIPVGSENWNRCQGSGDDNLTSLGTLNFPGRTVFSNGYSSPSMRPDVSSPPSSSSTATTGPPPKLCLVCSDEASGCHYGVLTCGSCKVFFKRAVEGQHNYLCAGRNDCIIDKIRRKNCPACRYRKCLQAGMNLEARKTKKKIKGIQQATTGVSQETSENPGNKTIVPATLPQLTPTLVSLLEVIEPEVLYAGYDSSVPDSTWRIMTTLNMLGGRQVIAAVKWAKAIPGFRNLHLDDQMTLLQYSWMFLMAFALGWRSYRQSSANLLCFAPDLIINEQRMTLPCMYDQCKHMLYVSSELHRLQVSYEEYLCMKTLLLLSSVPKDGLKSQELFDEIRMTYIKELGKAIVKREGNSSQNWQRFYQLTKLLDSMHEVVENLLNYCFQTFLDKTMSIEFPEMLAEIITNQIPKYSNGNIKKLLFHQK
Nature of the experiment: Glucocorticoid Receptor Binding Assay ([3H]-dexamethasone, A549 cell extract). The conditions noted are these: [3H]-dexamethasone binding, read-out: GR Ki. In a few lines: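 Displacement of [3H]-dexamethasone (1.86 nM) from glucocorticoid receptor in sonicated A549 lung epithelial cell extracts, 16 h at 4 °C, pH 7.2 molybdate-containing buffer. Bound radioactivity was scintillation-counted after charcoal/dextran stripping of free ligand.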

Consider `CS(=O)(=O)Nc1cccc(C[C@H]2c3ccccc3CCc3cc(F)ccc32)c1` [Example 383], for which the Ki on human MR and on glucocorticoid receptor was less than 500 nM in each case.
With `C/C(=C1\c2ccccc2COc2cc(F)ccc21)c1ccc2[nH]c(=O)[nH]c2c1` [Example 839], the Ki at human MR and at glucocorticoid receptor was less than 500 nM throughout.
Consider `CCOC(=O)C(=C1c2ccccc2CCc2ccccc21)c1cccc(NS(C)(=O)=O)c1` [Example 753, (10,11-Dihydro-dibenzo[a,d]cyclohepten-5-ylidene)-(3-methanesulfonylamino-phenyl)-acetic acid ethy lester], for which the Ki at human MR and at glucocorticoid receptor was less than 500 nM in each case.
As for `CS(=O)(=O)Nc1cccc(C=C2c3ccccc3CCc3cc(OCCc4ccccc4)ccc32)c1` [Example 330], the inhibition constant (Ki) on human MR and at glucocorticoid receptor was less than 500 nM throughout.
In the case of `Cn1c(=O)[nH]c2cc(/C=C3\c4ccccc4COc4cc(F)ccc43)ccc21` [Example 635], the figures for the Ki on human MR and on glucocorticoid receptor were less than 500 nM and less than 1000 nM, respectively.
In the same order, the values of `CS(=O)(=O)Nc1cccc(/C=C2\c3ccccc3CSc3cc(F)ccc32)c1` [Example 746] are less than 500 nM and less than 500 nM.
For the molecule `C(=C1c2ccccc2CCc2ccccc21)c1cn[nH]c1` [Example 237, 4-(10,11-Dihydro-dibenzo[a,d]cyclohepten-5-ylidenemethyl)-1H-pyrazole], the Ki at human MR is less than 500 nM; at glucocorticoid receptor, less than 10000 nM.
The like results for `CS(=O)(=O)Nc1cccc(/C=C2\c3ccc(Cl)cc3COc3ccccc32)c1` [Example 725] were, in that order, less than 500 nM and less than 500 nM.
Regarding `Cc1ccc2c(c1)CCc1ccccc1/C2=C\c1ccc(NS(C)(=O)=O)cc1` [Example 318], the Ki at human MR was less than 500 nM; at glucocorticoid receptor, less than 1000 nM.
Regarding `CS(=O)(=O)Nc1cc(F)cc(/C=C2\c3ccc(Cl)cc3CCc3cccnc32)c1` [Example 548], the Ki was less than 500 nM on human MR and less than 10000 nM at glucocorticoid receptor.
With `CCC(=C1c2ccc(C)cc2CCc2cc(C)ccc21)c1cccc(NS(C)(=O)=O)c1` [Example 772], the Ki at human MR and at glucocorticoid receptor was less than 500 nM throughout.
For `CN(C)C(=O)Nc1cccc(C=C2c3ccccc3CCc3cc(Cl)ccc32)c1` [Example 397], the Ki was less than 500 nM at human MR and less than 10000 nM at glucocorticoid receptor.
In the same order, the values of `Cc1ccc(S(=O)(=O)Nc2cccc(C=C3c4ccccc4CCc4cc(Cl)ccc43)c2)cc1` [Example 292] are less than 500 nM and less than 500 nM.
The like results for `CC(=C1c2ccc(C)cc2CCc2cc(F)ccc21)c1cccc(NS(C)(=O)=O)c1` [Example 830] were, in that order, less than 500 nM and less than 500 nM.
In the same order, the values of `C/C(=C1/c2ccccc2COc2c(F)cccc21)c1cccc(NS(C)(=O)=O)c1` [Example 788] are less than 500 nM and less than 500 nM.
With `O=c1[nH]c2cc(C=C3c4ccccc4CCc4ccccc43)ccc2s1` [Example 467], the Ki on human MR and on glucocorticoid receptor was less than 500 nM in each case.
Turning to `COc1cccc(C=C2c3ccccc3C(=O)N(C)c3ccc(Cl)cc32)c1` [Example 656], the Ki on human MR and on glucocorticoid receptor was less than 500 nM throughout.
`CS(=O)(=O)Nc1cccc(C=C2c3ccccc3C3CC3c3ccccc32)c1` (stereo not shown) [Example 602]: the Ki at human MR and at glucocorticoid receptor was less than 500 nM throughout.
With `Oc1cccc(C=C2c3ccccc3CCc3c(Cl)cccc32)c1` [211(a), 3-(1-Chloro-10,11-dihydro-dibenzo[a,d]cyclohepten-5-ylidenemethyl)-phenol], the Ki at human MR and on glucocorticoid receptor was less than 500 nM throughout.
For the molecule `COc1cc2c(c(OC)c1)/C(=C\c1cccc(NS(C)(=O)=O)c1)c1ccccc1SC2` [Example 687], the Ki at human MR and at glucocorticoid receptor was less than 500 nM in each case.
As to `COc1cccc2c1C(=Cc1cccc(NS(C)(=O)=O)c1)c1ccccc1CC2` [Example 353], the Ki on human MR and at glucocorticoid receptor was less than 500 nM throughout.
Regarding `FC(F)(F)c1cccc(CC2c3ccccc3CCc3ccccc32)c1` [Example 137, 5-(3-Trifluoromethyl-benzyl)-10,11-dihydro-5H-dibenzo[a,d]cycloheptene], the Ki at human MR is less than 500 nM; at glucocorticoid receptor, less than 1000 nM.
In the case of `Cc1ccccc1C=C1c2ccccc2CCc2ccccc21` [Example 130, 5-(2-Methyl-benzylidene)-10,11-dihydro-5H-dibenzo [a,d]cycloheptene], the Ki at human MR was less than 500 nM; at glucocorticoid receptor, less than 10000 nM.
The like results for `COC(=O)c1ccc2c(c1)CCc1ccccc1/C2=C/c1cccc(NS(C)(=O)=O)c1` [Example 387] were, in that order, less than 500 nM and less than 500 nM.
As for `CS(=O)(=O)Nc1cccc(/C=C2\c3ccccc3CCc3c2cccc3C(F)F)c1` [Example 382], the Ki at human MR and at glucocorticoid receptor was less than 500 nM throughout.
Turning to `C/C(=C1\c2cc(F)ccc2COc2ccccc21)c1cccc(NS(C)(=O)=O)c1` [Example 790], the Ki on human MR and at glucocorticoid receptor was less than 500 nM each time.
As for `Nc1nc2c(s1)C(=Cc1cccc(O)c1)c1ccccc1CC2` [Example 560], the Ki on human MR was less than 500 nM; at glucocorticoid receptor it was less than 1000 nM.
The like results for `COc1cccc2c1/C(=C\c1cccc(NS(C)(=O)=O)c1)c1ccccc1OC2` [Example 704] were, in that order, less than 500 nM and less than 500 nM.
Take `Cc1nc2cc(C=C3c4ccccc4CCc4ccccc43)ccc2o1` [Example 218, 5-(10,11-Dihydro-dibenzo[a,d]cyclohepten-5-ylidenemethyl)-2-methyl-benzooxazole]: the results for the Ki at human MR and on glucocorticoid receptor were less than 500 nM and less than 1000 nM, respectively.
As to `C(=C1c2ccccc2CCc2ccccc21)c1ccccc1-c1cccnc1` [Example 228, 3-[2-(10,11-Dihydro-dibenzo[a,d]cyclohepten-5-ylidenemethyl)-phenyl]-pyridine], the Ki at human MR is less than 500 nM; at glucocorticoid receptor, less than 1000 nM.
For `CC(C)CC(=C1c2ccccc2CCc2ccccc21)c1cccc(NS(C)(=O)=O)c1` [Example 783], the Ki on human MR and at glucocorticoid receptor was less than 500 nM each time.
With `CS(=O)(=O)Nc1cccc(/C=C2/c3ccc(F)cc3CCc3ncsc32)c1` [Example 563], the Ki at human MR and at glucocorticoid receptor was less than 500 nM throughout.
With `Fc1ccc2c(c1)CCc1ncccc1/C2=C/c1ccccc1F` [Example 578], the Ki is less than 500 nM on human MR and less than 10000 nM on glucocorticoid receptor.
The like results for `CS(=O)(=O)Nc1cccc(/C=C2/c3ccc(Cl)cc3CCc3ncsc32)c1` [Example 552] were, in that order, less than 500 nM and less than 500 nM.
The like results for `FC(F)(F)c1cc(CC2c3ccccc3CCc3ccccc32)cc(C(F)(F)F)c1` [Example 141, 5-(3,5-Bis-Trifluoromethyl-benzyl)-10,11-dihydro-5H-dibenzo[a,d]cycloheptene] were, in that order, less than 500 nM and less than 500 nM.

By Ki is commonly meant the equilibrium dissociation constant of an inhibitor or competing ligand from its target.

The record behind these values is patent publication US20060063759A1, “Tricyclic steroid hormone nuclear receptor modulators” (priority 2002, published 2006).
